# In publication PMC12889028, “Discovery and biological evaluation of novel N-aryl-N′-methylbenzodrazides against Schistosoma japonicum in vitro and in vivo” (Microbiology Spectrum, 2025):
# Read-outs that look alike come from different tables or passages of the source.
# How the values were obtained:
# adult S. japonicum worms = test: SEM examination in vitro of tegumental damage; format: cell-based, Schistosoma japonicum; conditions: 100 μM
# Procedure: Adult S. japonicum worms (male/female) underwent standardized fixation after in vitro exposure to compounds 5, 18, and 41 over a period of 12 h. First, the samples were immersed in 2.5% glutaraldehyde (prepared with 40 mL 0.2 M phosphate-buffered saline [PBS, pH 7.4], 5 mL 50% glutaraldehyde stock, and 55 mL ultrapure water) at 4°C for 24 h. After triple washes in PBS for 5 min each, worms were rinsed with deionized water for 10 min. The next dehydration sequence included ethanol gradient (50%, 70%, 80%, 90%, 100%; 5 min/step) and tert-butanol gradient (50%, 70%, 90%, 100%; 10 min/step). The worms were freeze-dried, directly sputter-covered with a thin gold layer using a Sputter Coater, and imaged using a scanning electron microscope (Quanta 450).
# healthy mice = test: Acute oral toxicity; format: in vivo; conditions: single oral dose, healthy ICR mice
# Procedure: (§1) ICR mice (n = 10/group), aged 6 to 8 weeks, received a single oral dose of compounds 5, 18, and 41 (732–2,234 mg/kg). LD50 values were determined by Probit analysis (SPSS 26.0).
# Acute oral toxicity = format: in vivo; conditions: ICR, mouse, in vivo, po, single oral dose, healthy ICR mice
# Procedure: as §1
# [1] = tested on: MCF-7 (human breast cancer) cells; test: Cytotoxicity MTT assay, MCF-7; format: cell-based; conditions: Homo sapiens, MCF7, 48 h incubation
# Procedure: (§2) The cytotoxicity of compounds 5, 18, and 41 against human liver cancer (HepG2) and human breast cancer (MCF-7) cell lines in vitro was evaluated using the MTT assay, with cisplatin as a positive control. Cells were plated into 96-well plates and incubated in 100 μL of Dulbecco’s modified Eagle’s medium for 24 h. Test compounds at specified final concentrations were then added to the culture medium. After 48 h incubation, MTT dye (10 μL, 0.5 mg/mL) was added, and cells were incubated for an additional 4 h at 37°C in 5% CO2. Formazan crystals were dissolved in 100 μL DMSO per well, and absorbance at 570 nm (OD570) was measured using an ELx800 microplate reader (Bio-Tek, Winooski, VT, USA) with background subtraction. Cytotoxicity was expressed as IC50 (the concentration causing 50% reduction in cell growth compared to untreated controls). Experiments were performed in triplicate, with results presented as mean ± standard deviation.
# [2] = tested on: adult worms of S. japonicum (Chinese strain); test: microbe, parasite or virus in culture; conditions: for mortality at 100 µM / LC50: Schistosoma japonicum; for LC50: read-out: LC50 (72 h)
# Procedure: S. japonicum cercariae (Chinese strain) were acquired from infected Oncomelania hupensis snails (Wuxi Insect Vector Biology Co., Ltd., China) ([28]). ICR mice (6–8 weeks, 22–25 g; Hunan SJA Laboratory Animal Co., Ltd., China) were percutaneously infected via abdominal exposure to 60 ± 5 cercariae. Adult schistosomes were perfused from the hepatic portal system at 35 dpi using a modified Duvall and DeWitt method ([29]). Animals were housed under controlled conditions (22°C ± 1°C, 12 h light/dark cycle) with ad libitum access to feed and water.
# Adult S. japonicum worms isolated from ICR mice were maintained in sterile culture medium (2.0 mL) comprising 77% RPMI 1640 (Lanzhou Bailing Biotech Co., Ltd.; pH 7.5, HEPES-buffered), 20% heat-inactivated fetal bovine serum (Lanzhou Minhai Bio-Engineering Co., Ltd.), and 3% penicillin-streptomycin (100×; 10,000 U/mL penicillin, 10,000 μg/mL streptomycin; New Cell & Molecular Biotech Co., Ltd., China). Incubation was performed at 37°C under 5% CO2. Test compounds were dissolved in DMSO as 0.1 M stock solutions; 2.0 μL aliquots were added to worm-containing media (final concentration: 100 μM in 0.1% DMSO). Negative controls received equivalent volumes of vehicle (0.1% DMSO in RPMI 1640). Parasite viability (motor activity, tegumental integrity, survival) was assessed every 12 h for 72 h using an Olympus CKX53 inverted microscope (n ≥ 3 independent replicates).
# [3] = Serum hepatic/renal function profiling of infected, treated mice; format: in vivo, ICR mice; conditions: for Serum GGT: normal range 1–15 U/L; for Serum TBIL: normal range 1.7–15.4 µM; for Serum BUN: normal range 4.9–10.4 mM; for Serum ALT: normal range 28–132 U/L; for Serum AST: normal range 59–247 U/L
# Procedure: Following maturation, Schistosoma parasites initiate oviposition, with a proportion of eggs migrating via the circulatory system to hepatic tissues. This ectopic deposition induces granuloma formation that subsequently elicits a cascade of immune-mediated pathologies, ultimately compromising hepatic and renal functions in murine models. To evaluate therapeutic efficacy, retro-orbital blood sampling was performed for comprehensive hepatic function profiling, enabling systematic assessment of pharmacological impacts on schistosomiasis-associated organ damage.
# Lead compounds 5, 18, and 41 (100 mg/kg) were orally administered once daily for 5 consecutive days to infected mice (n = 6/group) during two therapeutic windows: (i) Juvenile stage: treatment initiated at 9 dpi, terminal sacrifice at 45 dpi; (ii) adult stage: treatment initiated at 35 dpi, terminal sacrifice at 45 dpi. Positive controls received praziquantel (PZQ, 100 mg/kg/day ×5 days); negative controls received PBS (0.3 mL). Mice treated at 9 dpi were euthanized 36 days post-treatment; those treated at 35 dpi were euthanized 10 days post-treatment. Adult worms were perfused from the hepatic portal system and mesenteric veins. Parasite burden was quantified by worm enumeration, and worm burden reduction (WBR) was calculated: […]
# [4] = tested on: HepG2 (human liver cancer) cells; test: Cytotoxicity MTT assay, HepG2; format: cell-based; conditions: Homo sapiens, HepG2, 48 h incubation
# Procedure: as §2
# [5] = tested on: S. japonicum (Chinese strain); test: In vivo antischistosomal assay in infected mice (worm burden, worm morphology, liver eggs); parameters: species or system Schistosoma japonicum in ICR mice; conditions: mice, oral 100 mg/kg/day for 5 days; for Number of worms, Adult: adult stage (treatment from 35 dpi, sacrifice 45 dpi); for Worm burden reduction (WBR), Juvenile: juvenile stage (from 9 dpi); for Number of worms, Juvenile: juvenile stage (treatment from 9 dpi, sacrifice 45 dpi)
# Procedure: Lead compounds 5, 18, and 41 (100 mg/kg) were orally administered once daily for 5 consecutive days to infected mice (n = 6/group) during two therapeutic windows: (i) Juvenile stage: treatment initiated at 9 dpi, terminal sacrifice at 45 dpi; (ii) adult stage: treatment initiated at 35 dpi, terminal sacrifice at 45 dpi. Positive controls received praziquantel (PZQ, 100 mg/kg/day ×5 days); negative controls received PBS (0.3 mL). Mice treated at 9 dpi were euthanized 36 days post-treatment; those treated at 35 dpi were euthanized 10 days post-treatment. Adult worms were perfused from the hepatic portal system and mesenteric veins. Parasite burden was quantified by worm enumeration, and worm burden reduction (WBR) was calculated:
# WBR (%)=[1−Mean worm count (treated) / Mean worm count (control)]×100% .
# Schistosoma mansoni = tested on: Schistosoma mansoni; parameters: method as in PMID 25583726; conditions: S. mansoni mouse model; cited from earlier work
# [6] = 24 h, read-out: Mortality (%) 24 h, 100 μM, 24 h, adult worms in vitro
# [7] = 36 h, read-out: Mortality (%) 36 h, 100 μM, 36 h, adult worms in vitro
# [8] = 48 h, read-out: Mortality (%) 48 h, 100 μM, 48 h, adult worms in vitro
# [9] = 72 h, read-out: Mortality (%) 72 h, 100 μM, 72 h, adult worms in vitro
# [10] = infected mice treated in adult stage
# [11] = infected mice treated in juvenile stage
structure (smiles),measurement,setting,value
CN(NC(=O)c1ccc(Cl)c(Cl)c1)c1ccc(Br)cc1 [Compound 5],"Tegumental damage (SEM), female adult worms",adult S. japonicum worms; female worms,"full-thickness sucker ulceration with stromal collapse, atrophic transformation with coalescing vesicles, and advanced tissue disintegration with tegumental wrinkling"
same,"Tegumental damage (SEM), male adult worms",adult S. japonicum worms; male worms,"complete spine ablation in gynecophoric canals, suctorial constriction, and muscular layer protrusion through disrupted tegument"
same,LD50,healthy mice,">2,000 mg/kg"
same,LogLD50,healthy mice,>3.30
same,LD50,Acute oral toxicity,1400 mg/kg
same,IC50,[1],43.8 ± 2.53 µM
same,Mortality (%) 72 h,"[2]; 100 μM, 72 h, adult worms in vitro",100%
same,mortality at 100 µM,[2]; [6],35%
same,mortality at 100 µM,[2]; [7],65%
same,mortality at 100 µM,[2]; [8],95%
same,LC50,[2]; 72 h,80.2 ± 1.8 µM
same,mortality at 100 µM,[2]; [9],> 80%
same,Serum GGT,[3]; [10],0.73 ± 0.40 U/L
same,Serum TBIL,[3]; [10],6.70 ± 3.39 µM
same,Serum BUN,[3]; [10],8.80 ± 0.96 mM
same,Serum ALT,[3]; [10],313.33 ± 166.21 U/L
same,Serum AST,[3]; [10],527.33 ± 303.66 U/L
same,Serum GGT,[3]; [11],0.73 ± 0.06 U/L
same,Serum TBIL,[3]; [11],7.48 ± 1.64 µM
same,Serum BUN,[3]; [11],9.83 ± 1.43 mM
same,Serum ALT,[3]; [11],357.67 ± 176.92 U/L
same,Serum AST,[3]; [11],602.33 ± 309.33 U/L
same,Nephrotoxicity,"[3]; infected treated mice, judged from BUN",without observable nephrotoxicity
same,IC50,[4],23.2 ± 1.43 µM
same,"Morphology of worms after treatment in vivo, adult stage",[5]; adult stage,making the males thicker and shorter
same,"Worm burden reduction (WBR), Adult","[5]; adult stage (from 35 dpi), 100 mg/kg/day",34%
same,"Number of worms, Adult",[5],29
same,"Morphology of worms after treatment in vivo, juvenile stage",[5]; juvenile stage,marked stunting of male schistosomes
same,"Worm burden reduction (WBR), Juvenile",[5]; 100 mg/kg/day,25%
same,"Number of worms, Juvenile",[5],30
"O=C(Nc1ccc(Cl)c(Cl)c1)Nc1ccc(Cl)c(Cl)c1 [MMV665852, reference compound]",In vivo antischistosomal efficacy (worm burden reduction),Schistosoma mansoni,minimal antischistosomal efficacy
same,mortality at 100 µM,[2]; [6],100%
same,mortality at 100 µM,[2]; [7],100%
same,mortality at 100 µM,[2]; [8],100%
same,LC50,[2]; 72 h,12.5 ± 2.36 µM
same,mortality at 100 µM,[2]; [9],100%
same,"Number of worms, Adult",[5],36
same,"Worm burden reduction (WBR), Juvenile",[5],20%
same,"Number of worms, Juvenile",[5],32
